The values below come from US20050004216A1, “Treating asthma, chronic obstructive pulmonary disease and/or other respiratory difficulties” (priority 2001, published 2005).

In assay [1] the test system is asthma, chronic obstructive pulmonary disease and/or other respiratory difficulties. As to the kind of experiment: Trial examples: oral capsules in patients with asthma and/or chronic obstructive pulmonary disease. The note with it: trials with a variety of patients; dosage forms of cetyl myristate alone. The class given is in vivo, human. From the text:
Examples of use follows. […] That mixture comprises by weight 95% cetyl myristate and 5% cetyl palmitate by weight manufactured by the process as disclosed in NZ Patent Specification No. 332959. In addition added excipients were present in the admixture and then encapsulated in the non gelatin two part capsule case.

The conditions of assay [2]: laboratory experiments; reference to website www.gcinutrients.com; cited from earlier work.

For `CCCCCCCCCCCCCCCCOC(=O)CCCCCCCCCCCCC` [cetyl myristate], in assay [1], the “relief from the symptoms of asthma, chronic obstructive pulmonary disease and/or other respiratory difficulties” value was “favourable responses”. Also, the anti-arthritic activity entry in assay [2] is given as “negligible”.
